Test results taken from ChEMBL document CHEMBL1201862, “PubChem BioAssay data set” (2004).
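Interpolation was linear, between the two tested concentrations surrounding the appropriate level; five concentrations were tested over 48 hours in 96-well plates. GI50: concentration for 50% inhibition of growth.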 Calls of active or inactive are those of the source. No stated cut-off is given here; in the data, active = GI50 up to about 1.1 µM and inactive = higher.

Experiments:
Assay in all cases: NCI-60 cell line screen, 48 h
UO-31 = system: UO-31
ACHN = system: ACHN
SK-MEL-2 = system: SK-MEL-2
RPMI-8226 = system: RPMI-8226
786-0 = system: 786-0
Malme-3M = system: Malme-3M
NCI-H226 = system: NCI-H226
LOX IMVI = system: LOX IMVI
A498 = system: A498
SNB-19 = system: SNB-19
COLO 205 = system: COLO 205
SW-620 = system: SW-620
A549 = system: A549
CAKI-1 = system: CAKI-1
TK-10 = system: TK-10
SN12C = system: SN12C
HOP-18 = system: HOP-18
SK-MEL-28 = system: SK-MEL-28
MDA-MB-435 = system: MDA-MB-435
Hs-578T = system: Hs-578T

| Compound | GI50 (UO-31) | GI50 (ACHN) | GI50 (SK-MEL-2) | GI50 (RPMI-8226) | GI50 (786-0) | GI50 (Malme-3M) | GI50 (NCI-H226) | GI50 (LOX IMVI) | GI50 (A498) | GI50 (SNB-19) | GI50 (COLO 205) | GI50 (SW-620) | GI50 (A549) | GI50 (CAKI-1) | GI50 (TK-10) | GI50 (SN12C) | GI50 (HOP-18) | GI50 (SK-MEL-28) | GI50 (MDA-MB-435) | GI50 (Hs-578T) |
| --- | --- | --- | --- | --- | --- | --- | --- | --- | --- | --- | --- | --- | --- | --- | --- | --- | --- | --- | --- | --- |
| O=C1/C(=N\O)S(=O)(=O)c2ccccc21 | > 100 µM (inactive) | > 100 µM (inactive) | > 100 µM (inactive) | > 100 µM (inactive) | > 100 µM (inactive) | > 100 µM (inactive) | > 100 µM (inactive) | > 100 µM (inactive) | > 100 µM (inactive) | > 100 µM (inactive) | > 100 µM (inactive) | > 100 µM (inactive) | > 100 µM (inactive) | > 100 µM (inactive) | > 100 µM (inactive) | > 100 µM (inactive) | > 100 µM (inactive) | – | – | – |
| N=C(N)NS(=O)(=O)c1ccc(Nc2c3ccccc3nc3c(C(=O)Nc4ccc(S(N)(=O)=O)cc4)cccc23)cc1 | > 100 µM (inactive) | > 100 µM (inactive) | 42.5 µM (inactive) | > 100 µM (inactive) | > 100 µM (inactive) | > 100 µM (inactive) | – | 28.2 µM (inactive) | > 100 µM (inactive) | 37 µM (inactive) | > 100 µM (inactive) | > 100 µM (inactive) | > 100 µM (inactive) | > 100 µM (inactive) | > 100 µM (inactive) | > 100 µM (inactive) | > 100 µM (inactive) | > 100 µM (inactive) | – | – |
| O=C(O)C1CCN(Cc2oc(CO)cc(=O)c2O)C1 (stereo not drawn) | > 100 µM (inactive) | > 100 µM (inactive) | > 100 µM (inactive) | > 100 µM (inactive) | > 100 µM (inactive) | > 100 µM (inactive) | > 100 µM (inactive) | > 100 µM (inactive) | > 100 µM (inactive) | > 100 µM (inactive) | > 100 µM (inactive) | > 100 µM (inactive) | > 100 µM (inactive) | > 100 µM (inactive) | > 100 µM (inactive) | > 100 µM (inactive) | – | > 100 µM (inactive) | > 100 µM (inactive) | > 100 µM (inactive) |
| NC(=S)N/N=C/c1ncccc1N [TRIAPINE] | 0.37 µM (active) | 0.282 µM (active) | > 10 µM (inactive) | 0.792 µM (active) | 0.314 µM (active) | 1.87 µM (inactive) | 2.75 µM (inactive) | 0.679 µM (active) | 0.615 µM (active) | 9.89 µM (inactive) | 2.23 µM (inactive) | 3.72 µM (inactive) | 2.02 µM (inactive) | 0.521 µM (active) | > 10 µM (inactive) | 1.41 µM (inactive) | – | > 10 µM (inactive) | 1.71 µM (inactive) | > 10 µM (inactive) |
| COc1ccccc1/C=C(\C#N)c1ccccc1 | 28.8 µM (inactive) | 59.4 µM (inactive) | 27.2 µM (inactive) | 20.8 µM (inactive) | 20 µM (inactive) | – | 3.13 µM (inactive) | 46.9 µM (inactive) | 24.2 µM (inactive) | – | 15.6 µM (inactive) | 23.7 µM (inactive) | 37 µM (inactive) | 16.6 µM (inactive) | 40.7 µM (inactive) | 49.1 µM (inactive) | 38.5 µM (inactive) | 45.5 µM (inactive) | – | – |
| Cc1ccc(/C=C2\CCCCCC2=O)cc1 | > 100 µM (inactive) | > 100 µM (inactive) | > 100 µM (inactive) | > 100 µM (inactive) | > 100 µM (inactive) | > 100 µM (inactive) | > 100 µM (inactive) | > 100 µM (inactive) | > 100 µM (inactive) | > 100 µM (inactive) | > 100 µM (inactive) | > 100 µM (inactive) | > 100 µM (inactive) | > 100 µM (inactive) | > 100 µM (inactive) | > 100 µM (inactive) | – | > 100 µM (inactive) | > 100 µM (inactive) | > 100 µM (inactive) |
| CCc1n[nH]c(=O)n1N=C(c1ccccc1)c1ccccc1 | > 100 µM (inactive) | > 100 µM (inactive) | > 100 µM (inactive) | > 100 µM (inactive) | > 100 µM (inactive) | > 100 µM (inactive) | > 100 µM (inactive) | > 100 µM (inactive) | > 100 µM (inactive) | > 100 µM (inactive) | > 100 µM (inactive) | > 100 µM (inactive) | > 100 µM (inactive) | > 100 µM (inactive) | > 100 µM (inactive) | > 100 µM (inactive) | – | > 100 µM (inactive) | > 100 µM (inactive) | > 100 µM (inactive) |
| Cc1cc([N+](=O)[O-])ccc1Nc1cccc(Cl)c1C | 11.7 µM (inactive) | 17.8 µM (inactive) | 14.9 µM (inactive) | – | 14 µM (inactive) | 15.2 µM (inactive) | 18.9 µM (inactive) | 17.3 µM (inactive) | 15.3 µM (inactive) | 19.1 µM (inactive) | 17 µM (inactive) | 24.3 µM (inactive) | 16.6 µM (inactive) | 11.6 µM (inactive) | 14.8 µM (inactive) | 16.7 µM (inactive) | 14 µM (inactive) | 16.7 µM (inactive) | – | – |
